From patent US10501481B2, “Heterocyclic compounds and their use in preventing or treating bacterial infections” (priority 2015, dated 2019)

Tests used:
[1] = system: E. coli UFR32 (TEM-1, VEB-1, OXA-10); experiment: MIC broth microdilution, alone and synergy with ceftazidime; conditions: for MIC of CAZ in combination with compound at 4 μg/mL: strain UFR32, compound fixed at 4 μg/mL
[2] = system: E. coli 190317 (TEM-1, SHV-12, CTX-M-15, OXA-1); experiment: as above; conditions: for MIC of CAZ in combination with compound at 4 μg/mL: strain 190317, compound fixed at 4 μg/mL
[3] = system: P. aeruginosa CIP105250 (OXA-15); experiment: MIC broth microdilution, compounds alone; conditions: Pseudomonas aeruginosa, CIP105250, read-out: MIC compounds of the invention alone
[4] = system: E. cloacae UFR85 (TEM-1, CTX-M-15, derepressed AmpC); experiment: MIC broth microdilution, alone and synergy with ceftazidime; conditions: for MIC of CAZ in combination with compound at 4 μg/mL: strain UFR85, compound fixed at 4 μg/mL
[5] = system: P. aeruginosa UFR35 (OXA-23); experiment: as above; conditions: for MIC of CAZ in combination with compound at 4 μg/mL: strain UFR35, compound fixed at 4 μg/mL
E. cloacae P99 (AmpC) = experiment: as above; conditions: for MIC: Enterobacter cloacae, read-out: MIC compounds of the invention alone; for MIC of CAZ in combination with compound at 4 μg/mL: strain P99, compound fixed at 4 μg/mL
[6] = system: C. murliniae 210102 (VIM-4); experiment: as above; conditions: for MIC: read-out: MIC compounds of the invention alone; for MIC of CAZ in combination with compound at 4 μg/mL: strain 210102, compound fixed at 4 μg/mL
[7] = system: E. coli UFR52 (TEM-1, SHV-12, IMP-8); experiment: as above; conditions: for MIC: Escherichia coli, read-out: MIC compounds of the invention alone; for MIC of CAZ in combination with compound at 4 μg/mL: strain UFR52, compound fixed at 4 μg/mL
[8] = system: P. aeruginosa UFR90 (derepressed AmpC, OprD−); experiment: as above; conditions: strain UFR90; compound fixed at 4 μg/mL
OXA-15 = biological target: T1, OXA-15 (Pseudomonas aeruginosa, UniProt Q51574); experiment: β-lactamase inhibitory activity, nitrocefin hydrolysis; type: biochemical
T1 construct: made in house; host or cells: E. coli
Method: (§1) Enzyme activity was monitored by spectrophotometric measurement of nitrocefin (NCF-TOKU-E, N005) hydrolysis at 485 nm, at room temperature and in assay buffer A: 100 mM Phosphate pH7, 2% glycerol and 0.1 mg/mL Bovine serum albumin (Sigma, B4287). […] To a transparent polystyrene plate (Corning, 3628) were added in each well 5 μL DMSO or inhibitor dilutions in DMSO and 80 μL enzyme in buffer A. Plates were immediately read at 485 nm in a microplate spectrophotometer (BioTek, PowerWave HT) to enable background subtraction. After 30 min of pre-incubation at room temperature, 15 μL of NCF (200 μM final) were finally added in each well. Final enzyme concentrations were 0.1 nM (TEM-1), 0.075 nM (SHV-1), 0.4 nM (CTX-M-15), 1 nM (KPC-2), 0.2 nM (P99 AmpC), 0.2 nM (CMY-37), 0.4 nM (AmpC P. aeruginosa), 0.2 nM (OXA-1), 1.2 nM (OXA-11), 0.4 nM (OXA-15) and 0.3 nM (OXA-48). After 20 min incubation at room temperature, plates were once again read at 485 nm. Enzyme activity was obtained by subtracting the final signal by the background, and was converted to enzyme inhibition using non inhibited wells. IC50 curves were fitted to a classical Langmuir equilibrium model with Hill slope using XLFIT (IDBS).

[9] = system: P. aeruginosa UFR92 (derepressed AmpC, OprD−); experiment: MIC broth microdilution, alone and synergy with ceftazidime; conditions: strain UFR92; compound fixed at 4 μg/mL
TEM-1 = biological target: T2, TEM-1 (Escherichia coli, UniProt P62593); experiment: β-lactamase inhibitory activity, nitrocefin hydrolysis; type: biochemical; conditions: class (A); 30 min pre-incubation; nitrocefin 200 μM
T2 construct: made in house; host or cells: E. coli
Method: as §1

[10] = system: K. pneumoniae UFR77 (CMY-2); experiment: MIC broth microdilution, alone and synergy with ceftazidime; conditions: for MIC: Klebsiella pneumoniae, read-out: MIC compounds of the invention alone; for MIC of CAZ in combination with compound at 4 μg/mL: strain UFR77, compound fixed at 4 μg/mL
[11] = system: E. cloacae 260508 (TEM-1, CTX-M-15); experiment: as above; conditions: for MIC: Enterobacter cloacae, read-out: MIC compounds of the invention alone; for MIC of CAZ in combination with compound at 4 μg/mL: strain 260508, compound fixed at 4 μg/mL
[12] = system: P. aeruginosa UFR48 (VIM-2); experiment: MIC broth microdilution, compounds alone; conditions: Pseudomonas aeruginosa, read-out: MIC compounds of the invention alone
[13] = system: P. aeruginosa UFR47 (VIM-1); experiment: MIC broth microdilution, compounds alone; conditions: Pseudomonas aeruginosa, read-out: MIC compounds of the invention alone
[14] = system: P. aeruginosa UFR59 (IMP-29); experiment: MIC broth microdilution, compounds alone; conditions: Pseudomonas aeruginosa, read-out: MIC compounds of the invention alone
[15] = Escherichia coli, read-out: MIC compounds of the invention alone

T2 sequence (P62593 24-286 limits assumed): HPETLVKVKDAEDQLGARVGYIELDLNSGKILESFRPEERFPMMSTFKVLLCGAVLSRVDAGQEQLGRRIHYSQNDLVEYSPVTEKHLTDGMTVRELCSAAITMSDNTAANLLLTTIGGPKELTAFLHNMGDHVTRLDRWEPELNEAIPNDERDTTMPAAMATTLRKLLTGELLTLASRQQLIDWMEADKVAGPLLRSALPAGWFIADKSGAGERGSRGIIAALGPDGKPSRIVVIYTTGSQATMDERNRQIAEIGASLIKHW
T1 sequence (Q51574 22-275): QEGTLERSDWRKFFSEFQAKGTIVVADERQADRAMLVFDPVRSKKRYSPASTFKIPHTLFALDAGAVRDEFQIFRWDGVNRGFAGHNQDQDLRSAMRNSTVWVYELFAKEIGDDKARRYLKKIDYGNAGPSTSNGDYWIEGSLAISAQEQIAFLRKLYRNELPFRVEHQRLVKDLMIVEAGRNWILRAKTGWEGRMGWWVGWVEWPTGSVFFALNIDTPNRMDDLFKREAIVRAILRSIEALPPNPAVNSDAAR

SMILES	MIC of CAZ in combination with compound at 4 μg/mL [1] [µg/mL]	MIC of CAZ in combination with compound at 4 μg/mL [2] [µg/mL]	MIC [3] [µg/mL]	MIC of CAZ in combination with compound at 4 μg/mL [4] [µg/mL]	MIC of CAZ in combination with compound at 4 μg/mL [5] [µg/mL]	MIC (E. cloacae P99 (AmpC)) [µg/mL]	MIC of CAZ in combination with compound at 4 μg/mL (E. cloacae P99 (AmpC)) [µg/mL]	MIC [6] [µg/mL]	MIC of CAZ in combination with compound at 4 μg/mL [6] [µg/mL]	MIC [7] [µg/mL]	MIC of CAZ in combination with compound at 4 μg/mL [7] [µg/mL]	MIC of CAZ in combination with compound at 4 μg/mL [8] [µg/mL]	IC50 (OXA-15) [nM]	MIC of CAZ in combination with compound at 4 μg/mL [9] [µg/mL]	IC50 (TEM-1) [nM]	MIC [10] [µg/mL]	MIC of CAZ in combination with compound at 4 μg/mL [10] [µg/mL]	MIC [11] [µg/mL]	MIC of CAZ in combination with compound at 4 μg/mL [11] [µg/mL]	further results
Cn1c2c(sc1=O)C1CN(C2)C(=O)N1OS(=O)(=O)[O-].[Na+] (stereo not drawn) [Example 1, Sodium (5-methyl-4,9-dioxo-3-thia-5,8,10-triaza-tricyclo[6.2.1.0^2.6]undec-2(6)-en-10-yl) sulfate]	<0.25	≤0.125	> 32	<0.25	4	8	0.5	32	>128	8	0.5	64	250	32	3.3	8	≤0.25	4	<0.25	–
COC(=O)Cn1c2c(sc1=O)C1CN(C2)C(=O)N1OS(=O)(=O)[O-].[Na+] (stereo not drawn) [Example 2, Sodium [5-(2-methoxy-2-oxo-ethyl)-4,9-dioxo-3-thia-5,8,10-triaza-tricyclo[6.2.1.0^2.6]undec-2(6)-en-10-yl] sulfate]	<0.25	<0.25	> 32	16	–	16	4	16	–	8	–	–	57	–	0.64	4	0.25	4	<0.25	–
NCCn1c2c(sc1=O)C1CN(C2)C(=O)N1OS(=O)(=O)[O-].[Na+] (stereo not drawn) [Example 4, Sodium and 2,2,2-trifluoroacetate [5-(2-azaniumethyl)-4,9-dioxo-3-thia-5,8,10-triaza-tricyclo[6.2.1.0^2.6]undec-2(6)-en-10-yl] sulfate]	<0.25	<0.25	8	<0.25	2	0.5	<0.25	4	<0.25	2	<0.25	1	300	≤0.25	4.6	16	≤0.25	8	<0.25	MIC [1, 15]: 1 µg/mL; MIC [2, 15]: 1 µg/mL; MIC ([4]; Enterobacter cloacae, read-out: MIC compounds of the invention alone): 2 µg/mL; MIC ([5]; Pseudomonas aeruginosa, read-out: MIC compounds of the invention alone): 8 µg/mL; MIC [12]: 8 µg/mL; MIC [13]: 16 µg/mL; MIC [14]: 8 µg/mL
O=C1N2Cc3c(sc(=O)n3CCO)C(C2)N1OS(=O)(=O)[O-].[Na+] (stereo not drawn) [Example 5, Sodium [5-(2-hydroxyethyl)-4,9-dioxo-3-thia-5,8,10-triaza-tricyclo[6.2.1.0^2.6]undec-2(6)-en-10-yl) sulfate]	<0.25	<0.25	> 32	<0.25	–	8	0.25	8	64	0.5	<0.25	–	190	–	1.8	4	<0.25	4	<0.25	–
